Key:
[1] = tested on: Lolium; test: Herbicidal post-emergence action (Example A, greenhouse); assay type: in vivo; settings: 320 g of a.i./ha
Protocol: (§1) Seeds of monocotyledonous and dicotyledonous weed and crop plants are placed into sandy loam in wood fibre pots, covered with soil and cultivated in a greenhouse under good growth conditions. 2-3 weeks after sowing, the test plants are treated at the one-leaf stage. The test compounds, formulated as wettable powders (WP), are, in various dosages with a water application rate of. 600 l/ha (converted), with 0.2% of wetting agent added, sprayed onto the green parts of the plants. After the test plants were kept in the greenhouse under optimum growth conditions for about 3 weeks, the effect of the preparations is rated visually in comparison to untreated controls (herbicidal effect in percent (%): 100% effect=the plants have died, 0% effect=like control plants).

[2] = tested on: Setaria; test: as above; assay type: in vivo; settings: 320 g of a.i./ha
Protocol: as §1

[3] = tested on: Avena sativa; test: as above; assay type: in vivo; settings: 320 g of a.i./ha
Protocol: as §1

[4] = tested on: Sinapis; test: as above; assay type: in vivo; settings: 320 g of a.i./ha, rated visually after about 3 weeks
Protocol: as §1

[5] = tested on: larvae of the mustard beetle (Phaedon cochleariae); test: Phaedon test (spray treatment); assay type: in vivo; settings: 500 g/ha, spray treatment of Chinese cabbage discs
Protocol: [table] To produce a suitable preparation of active compound, 1 part by weight of active compound is mixed with the stated amounts of solvents and emulsifier, and the concentrate is diluted with emulsifier-containing water to the desired concentration. Discs of Chinese cabbage (Brassica pekinensis) are sprayed with a preparation of active compound of the desired concentration and, after they have dried, populated with larvae of the mustard beetle (Phaedon cochleariae).

[6] = tested on: greenhouse red spider mite (Tetranychus urticae); test: Tetranychus test (OP-resistant/spray treatment); assay type: in vivo; settings: 100 g/ha, OP-resistant, spray treatment of bean leaf discs
Protocol: To produce a suitable preparation of active compound, 1 part by weight of active compound is mixed with the stated amounts of solvents and emulsifier, and the concentrate is diluted with emulsifier-containing water to the desired concentration.
Discs of bean leaves (Phaseolus vulgaris) which are infested by all stages of the greenhouse red spider mite (Tetranychus urticae) are sprayed with a preparation of active compound of the desired concentration.
After the desired period of time, the activity in % is determined. 100% means that all spider mites have been killed; 0% means that none of the spider mites have been killed.

[7] = tested on: Stellaria; test: Herbicidal post-emergence action (Example A, greenhouse); assay type: in vivo; settings: 320 g of a.i./ha, rated visually after about 3 weeks
Protocol: as §1

[8] = tested on: Summer barley; test: Herbicidal post-emergence action, use of safeners, vessel trials with cereals in the greenhouse (Example B); settings: in vivo
Protocol: (§2) Seeds of monocotyledonous and dicotyledonous weed and crop plants are placed into sandy loam in wood fibre pots or in plastic pots, covered with soil and cultivated in a greenhouse, during the vegetation period also outdoors outside of the greenhouse, under good growth conditions. 2-3 weeks after sowing, the test plants are treated at the one- to three-leaf stage. The test compounds, formulated as wettable powders (WP) or emulsifiable concentrates (EC) are, in various dosages with a water application rate of 300 l/ha (converted), with wetting agent (0.2 to 0.3%) added, sprayed onto the plants and the surface of the soil. 3-4 weeks after the treatment of the test plants, the effect of the preparations is rated visually in comparison to untreated controls (herbicidal effect in percent (%): 100% effect=the plants have died, 0% effect=like control plants). […]

[9] = tested on: Summer wheat; test: as above; settings: in vivo
Protocol: as §2

[10] = rated visually after about 3 weeks
[11] = rated visually after about 3 weeks (second table)

Row | Compound | herbicidal effect in percent, Lolium [1, 10] | herbicidal effect in percent, Setaria [2, 10] | herbicidal effect in percent, Avena sativa [3, 10] | herbicidal effect in percent, Lolium [1, 11] | herbicidal effect in percent, Setaria [2, 11] | herbicidal effect in percent, Avena sativa [3, 11] | herbicidal effect in percent, Sinapis [4] | further results
1 | CCc1cc(C)cc(C)c1C1=C(O)C(C)N(CC)C1=O (centres unmarked) [Example I-a-1] | 100% | 90% | 80% | – | – | – | – | –
2 | CCc1cc(C)cc(C)c1C1=C(O)CN(C2CC2)C1=O [I-a-3] | – | – | – | 100% | 90% | 80% | 70% | –
3 | CCOC(=O)OC1=C(c2c(C)cc(C)cc2CC)C(=O)NC1(C)C(C)C (centres unmarked) [Example I-c-3] | 100% | 90% | 90% | – | – | – | – | –
4 | CCc1cc(C)cc(C)c1C1=C(OC(=O)C(C)C)C(CC)(CC)NC1=O [Example I-b-18] | – | – | – | – | – | – | – | Kill rate in % after 5 d [5]: 100%; Kill rate in % after 5 d [6]: 100%
5 | CCOC(=O)OC1=C(c2c(C)cc(C)cc2CC)C(=O)NC1(C)C [I-c-2] | – | – | – | 100% | 100% | 100% | 70% | herbicidal effect in percent, Stellaria [7]: 70%
6 | CCOC(=O)OC1=C(c2c(C)cc(C)cc2CC)C(=O)N(CC)C1C (centres unmarked) [Example I-c-1] | 100% | 100% | 90% | – | – | – | – | –
7 | CCc1cc(C)cc(C)c1C1=C(OC(=O)C(C)(C)C)C(C)(C(C)C)NC1=O (centres unmarked) [I-b-3] | 70% | 80% | 90% | – | – | – | – | –
8 | CCc1cc(C)cc(C)c1C1=C(OC(=O)C(C)C)C(C)(C)NC1=O [Example I-b-2] | – | – | – | 100% | 100% | 100% | 70% | herbicidal effect in percent, Stellaria [7]: 80%
9 | CCc1cc(C)cc(C)c1C1=C(OC(=O)C(C)C)C(C)(C2CC2)NC1=O (centres unmarked) [Example I-b-10] | – | – | – | – | – | – | – | Kill rate in % after 5 d [5]: 100%; Kill rate in % after 5 d [6]: 90%
10 | CCc1cc(C)cc(C)c1C1=C(O)C(C)(C(C)C)NC1=O (centres unmarked) [I-a′-2] | – | – | – | – | – | – | – | Summer barley observed (%) [8]: 20%; Summer wheat observed (%) [9]: 25%

— patent US20100240924A1, “2-ETHYL-4,6-DIMETHYL-PHENYL-SUBSTITUTED TETRAMIC ACID DERIVATIVES AS PEST CONTROL AGENTS AND/OR HERBICIDES” (BAYER CROPSCIENCE AG, priority 2003, published 2010)
